11 compounds from patent publication US4755594A, “N^6 -substituted adenosines” (Warner-Lambert Company, priority 1986, dated 1988) can be followed below.

In one data set the target is T1, adenosine A1 receptor (Rattus norvegicus, UniProt P25099).
T1 construct: Whole brain minus cerebellum and brainstem from male Long-Evans rats; from tissue; host or cells: whole brain minus cerebellum and brainstem, male Long-Evans rats
T1 sequence (P25099 1-326): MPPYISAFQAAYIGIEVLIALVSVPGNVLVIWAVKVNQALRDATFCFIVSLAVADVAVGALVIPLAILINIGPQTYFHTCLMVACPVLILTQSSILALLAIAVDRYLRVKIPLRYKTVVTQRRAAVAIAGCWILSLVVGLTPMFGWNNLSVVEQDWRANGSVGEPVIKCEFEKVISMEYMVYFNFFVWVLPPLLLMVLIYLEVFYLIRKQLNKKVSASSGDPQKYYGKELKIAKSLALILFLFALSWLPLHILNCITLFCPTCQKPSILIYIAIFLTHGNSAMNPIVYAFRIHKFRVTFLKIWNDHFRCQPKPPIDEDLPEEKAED
Briefly: Adenosine Receptor Binding--A1 Receptor Affinity (RBA1), [3H]-CHA, whole brain membranes. Particulars: read-out: RBA-1 IC50. The procedure: Adenosine Receptor Binding--A1 Receptor Affinity (RBA1 )
Whole brain minus cerebellum and brainstem from male Long-Evans rats (150-200 g) was homogenized in 30 volumes of ice-cold 0.05M Tris-HCl buffer pH 7.7 using a Brinkman Polytron PT-10, (setting number 6 for 20 seconds) and centrifuged for ten minutes at 20,000 xg (Sorvall RC-2), 4° C. The supernatant was discarded, and the pellet was resuspended and centrifuged as before. The pellet was resuspended in 20 ml Tris-HCl buffer containing two International Units/ml of adenosine deaminase (Sigma type III from calf intestinal mucosa), incubated at 37° C. for 30 minutes, then subsequently at 0° C. for ten minutes. The homogenate was again centrifuged, and the final pellet was resuspended in ice-cold 0.05M Tris-HCl buffer pH 7.7 to a concentration of 20 mg/ml original wet tissue weight and used immediately.
Tissue homogenate (10 mg/ml) was incubated in 0.05M Tris-HCl buffer pH 7.7 containing 1.0 nM [^3 H]--N^6 -cyclohexyladenosine ([^3 H]--CHA) with or without test agents in triplicate for one hour at 25° C. Incubation volume was 2 ml. Unbound [^3 H]--CHA was separated by rapid filtration under reduced pressure through Whatman glass fiber (GF/B) filters. The filters were rinsed three times with 5 ml of ice cold 0.05M Tris-HCl buffer pH 7.7. The radio-labeled ligand retained on the filter was measured by liquid scintillation spectrophotometry after shaking the filters for one hour or longer on a mechanical shaker in 10 ml of Beckman Ready-Solv HP scintillation cocktail.
Nonspecific binding was defined as the binding which occurred in the presence of 1 mM theophylline. The concentration of test agent which inhibited 50% of the specific binding (IC50) was determined by nonlinear computer curve fit. The Scatchard plot was calculated by linear regression of the line obtained by plotting the amount of radioligand bound (pmoles/gram of tissue) [formula] Since the amount of radioligand bound was a small fraction of the total amount added, free radioligand was defined as the concentration of (nM) of radioligand added to the incubation mixture. The Hill coefficient was calculated by linear regression of the line obtained by plotting the log of the bound radioligand vs the log of the [formula] The maximal number of binding sites (Bmax) was calculated from the Scatchard plot.

A short description of data set [1]: Mouse Activity and Screen Test Procedure (MAST): screen test. The note with it: IP. The data set is classed as in vivo, Swiss-Webster male mice. The source says: The compounds of the invention are new chemical substances which are useful as pharmaceutical agents for the treatment of psychoses. The antipsychotic activity of representative compounds of the invention was established by the Mouse Activity and Screen Test Procedure (MAST) described below. Animals Nine unfasted Swiss-Webster male mice weighing 20-30 g are equally divided into three groups for each drug dose to be tested. That is, data for each dose level was generated by three separate groups of three mice each. Drugs A minimum of three dose levels (10, 30, and 100 mg/kg) are tested for each drug. Treatments are administered intraperitoneally one hour prior to testing. All dosages are calculated as parent compound and given in volumes of 10 ml/kg. Compounds are dissolved or suspended in 0.2% Methocel. Control animals are injected with Methocel. Testing A two part testing procedure is started one hour postinjection. First, the screen test (ST) is performed (see Pharmac. Biochem. Behav. 6, 351-353, 1977). Briefly this test consists of placing mice on individual wire screens which are then rotated 180 degrees at the start of a 60 second observation period. The number of mice falling off the inverted screen is recorded. Data The data obtained from the screen test are expressed as percent of mice falling off the screen. Data derived from locomotor activity of drug treated mice are compared to the activity of vehicle treated animals and are expressed as percent inhibition of spontaneous locomotion. All percentages reported for inhibition of locomotion (LI) are based upon data accumulated for one hour. Both phases of testing are graded: A=60-100%; C=31-59%; and N=0-30%. An overall dose rating is obtained by the following criteria: […]

On to `O[C@@H]1[C@H](O)[C@@H](CCl)O[C@H]1n1cnc2c(NCC3(c4cccs4)CC3)ncnc21` [Example 6, 5'-Chloro-5'-deoxy-N6-((1-thien-2-ylcyclopropyl)methyl)adenosine], for which the concentration for half-maximal inhibition (IC50) at adenosine A1 receptor came out at 18 nM. Besides, the “Inhibition of screen test failure” value in data set [1] (3 mg/kg), in data set [1] (10 mg/kg) and in data set [1] (30 mg/kg) was 0% throughout.
Take `OC[C@H]1O[C@@H](n2cnc3c(NCC4(c5ccc(Cl)cc5)CC4)ncnc32)[C@H](O)[C@@H]1O` [Example 12, N6-((1-(4-Chlorophenyl)cyclopropyl)methyl)adenosine]: on adenosine A1 receptor, the half-maximal inhibitory concentration (IC50) came out at 70 nM. The “Inhibition of screen test failure” value in data set [1] (3 mg/kg), in data set [1] (10 mg/kg) and in data set [1] (30 mg/kg) was 0% each time.
As for `OC[C@H]1O[C@@H](n2cnc3c(NCC4(c5cccs5)CC4)ncnc32)[C@H](O)[C@@H]1O` [Example 3, N6-((1-Thien-2-ylcyclopropyl)methyl)adenosine], the half-inhibitory concentration (IC50) on adenosine A1 receptor came to 7.3 nM. For the same compound, the “Inhibition of screen test failure” value in data set [1] (0.03 mg/kg), in data set [1] (0.1 mg/kg), in data set [1] (0.3 mg/kg), in data set [1] (1.0 mg/kg), in data set [1] (3 mg/kg) and in data set [1] (10 mg/kg) was 0% each time.
Take `OC[C@H]1O[C@@H](n2cnc3c(NCC4(c5cccc(Cl)c5)CC4)ncnc32)[C@H](O)[C@@H]1O` [Example 2, N6-((1-(3-Chlorophenyl)cyclopropyl)methyl)adenosine]: the IC50 on adenosine A1 receptor stood at 32 nM. For the same compound, the results for the “Inhibition of screen test failure” value in data set [1] (3 mg/kg), in data set [1] (10 mg/kg) and in data set [1] (30 mg/kg) were 11%, 0% and 0%, respectively.
`OC[C@H]1O[C@@H](n2cnc3c(NCC4(c5ccccc5)CCCC4)ncnc32)[C@H](O)[C@@H]1O` [Example 10, N6-((1-Phenylcyclopentyl)methyl)adenosine]: the half-maximal inhibitory concentration (IC50) on adenosine A1 receptor amounted to 110 nM. For the same compound, the figures for the “Inhibition of screen test failure” value in data set [1] (3 mg/kg), in data set [1] (10 mg/kg) and in data set [1] (30 mg/kg) were 11%, 0% and 22%, respectively.
For `OC[C@H]1O[C@@H](n2cnc3c(NCC4(c5cccc(Cl)c5)CCC4)ncnc32)[C@H](O)[C@@H]1O` [Example 8, N6-((1-(3-Chlorophenyl)cyclobutyl)methyl)adenosine], at adenosine A1 receptor, the IC50 came to 31 nM. Further, the “Inhibition of screen test failure” value in data set [1] (3 mg/kg), in data set [1] (10 mg/kg) and in data set [1] (30 mg/kg) was 0% each time.
Consider `OC[C@H]1O[C@@H](n2cnc3c(NCC4(c5ccccc5)CCCCC4)ncnc32)[C@H](O)[C@@H]1O` [Example 11, N6-((1-Phenylcyclohexyl)methyl)adenosine], for which the IC50 at adenosine A1 receptor worked out at 410 nM. The entries for the “Inhibition of screen test failure” value in data set [1] (3 mg/kg), in data set [1] (10 mg/kg) and in data set [1] (30 mg/kg) were 11%, 0% and 0%, respectively.
Regarding `OC[C@H]1O[C@@H](n2cnc3c(NCC4(c5ccccc5)CC4)ncnc32)[C@H](O)[C@@H]1O` [Example 1, N6-((1-Phenylcyclopropyl)methyl)adenosine], on adenosine A1 receptor, the 50% inhibitory concentration (IC50) is 28 nM. The “Inhibition of screen test failure” value in data set [1] (0.3 mg/kg) was 11%; in data set [1] (1.0 mg/kg), 0%; in data set [1] (3 mg/kg), 0%; in data set [1] (10 mg/kg), 0%; in data set [1] (30 mg/kg), 22%; in data set [1] (100 mg/kg) it was 44%.
Consider `OC[C@H]1O[C@@H](n2cnc3c(NCC4(c5cccs5)CCC4)ncnc32)[C@H](O)[C@@H]1O` [Example 9, N6-((1-Thien-2-ylcyclobutyl)methyl)adenosine], for which the concentration for half-maximal inhibition (IC50) on adenosine A1 receptor turned out to be 5.6 nM. Also, the “Inhibition of screen test failure” value in data set [1] (3 mg/kg), in data set [1] (10 mg/kg) and in data set [1] (30 mg/kg) was 0% throughout.
With `O[C@@H]1[C@H](O)[C@@H](CCl)O[C@H]1n1cnc2c(NCC3(c4ccccc4)CC3)ncnc21` [Example 5, 5'-Deoxy-5'-chloro-N6-((1-phenylcyclopropyl)methyl)adenosine], the IC50 on adenosine A1 receptor came out at 52 nM. In addition, the “Inhibition of screen test failure” value in data set [1] (3 mg/kg) is listed as 11%; in data set [1] (10 mg/kg) it was 0%; in data set [1] (30 mg/kg) it was 0%.
Turning to `OC[C@H]1O[C@@H](n2cnc3c(NCC4(c5ccccc5)CCC4)ncnc32)[C@H](O)[C@@H]1O` [Example 7, N6-((1-Phenylcyclobutyl)methyl)adenosine], the half-inhibitory concentration (IC50) on adenosine A1 receptor is 16 nM. Moreover, the “Inhibition of screen test failure” value in data set [1] (1.0 mg/kg), in data set [1] (3 mg/kg) and in data set [1] (10 mg/kg) was 0% in each case.
